From patent publication US9198879B2, “Pharmacologically optimized multimodal drug delivery system for nordihydroguiaretic acid (NDGA)” (Napo Pharmaceuticals, Inc., priority 2011, dated 2015)
“Also recorded” adds a separate entry of the source.

Experiments:
[1] = First Phase I ascending single-dose study, NDGA concentrations in plasma after oral capsules; assay type: in vivo, human; settings: for AUC0-last / Cmax / Tmax: capsule, healthy male volunteers
Procedure: (§1) The first Phase I study of NDGA was an ascending-dose, single-dose, single-blind (subject), placebo-controlled study conducted in healthy male volunteers between 18 and 45 years old. Fourteen subjects participated in up to 3 study periods, and 5 doses of NDGA were studied: 200, 400, 800, 1600, and 2000 mg. During each study period the subjects were monitored for safety for 72 hours following NDGA oral administration. Blood samples collected following NDGA administration were used to determine NDGA concentrations in plasma. […] The orally administered NDGA used in the study was contained in white, opaque, size 3 gelatin capsules. Each capsule contained 100 mg of NDGA.
The results for each of the five doses are depicted in FIGS. 4 to 8 corresponding to 200, 400, 800, 1600 and 2000 mg dosages, respectively.
The pharmacokinetic parameters of NDGA as observed in this experiment are given below in Table 1: […]

Db/db mice = test: Glucose lowering in db/db mice; assay type: in vivo, mouse; settings: db/db mice with diabetes, given orally
Source text: (§2) In this study, the following animal models where used: • Db/db mice: homozygous mice are a model of obesity, diabetes and dyslipedemia where their leptin receptor activity is deficient. • Ob/ob mice: obese mice with diabetes. • Db/lean mice: heterozygous mice that are not diabetic. • Fat/STZ rats: non-genetically diabetic overweight rats that are fed diets enriched in fat and made hyperglycemic by chemically removing their pancreatic function to reduce insulin production by treating them with streptozotocin (STZ). • Fructose/STZ rats: non-diabetic rats that are fed diets enriched in fructose and made hyperglycemic by treating them with STZ. • ZDF rats: obese and hyperglycemic rats with other metabolic disorders.
(§3) Baseline glucose and triglyceride concentrations, where appropriate, were measured for both diabetic and normal animals.

[2] = tested on: high fat diet-fed/STZ rat model; test: Liver and muscle glycogen content after NDGA treatment; assay type: in vivo
Procedure: In the high fat diet-fed/STZ rat model, liver and muscle glycogen content was measured after treatment with NDGA versus vehicle. Treatment with NDGA had no effect on muscle glycogen levels when compared to control.

[3] = Phase I safety study, patients reporting adverse events; assay type: in vivo, human; settings: n = 29
Procedure: as §1
The second Phase I study of NDGA was an open-label, randomized, two-period crossover study designed to determine if a high-fat meal affects the absorption of NDGA, and to provide preliminary information about possible gender differences in the pharmacokinetics of NDGA. A total of 16 healthy volunteers (8 men and 8 women), ranging in age from 19 to 48 years old, participated in this study. Each subject received an active NDGA dose under fasted conditions and another under fed conditions (the two study periods were separated by a 7-day washout period). Blood samples were collected immediately before and for 48 hours following NDGA administration and used for determination of plasma concentrations of NDGA. The NDGA used in the study was provided in white, opaque Size 0 gelatin capsules. Each capsule contained 250 mg of NDGA.

[4] = tested on: liver triglyceride secretion; test: Liver triglyceride secretion; assay type: in vivo; settings: NDGA treatment
Source text: It is likely that the triglyceride-lowering effect of NDGA may also be explained, at least in part, by the suppression of free fatty acid (FFA) release. Free fatty acids in the circulation can enter the liver and can be re-assembled into triglycerides by the process of re-esterification. […] It should be noted that other mechanisms for reducing triglycerides, such as increased triglyceride clearance, are not ruled out by these findings.
The triglyceride-lowering effect of NDGA may be explained by the suppression of free fatty acid (FFA) release. Free fatty acids in the circulation can enter the liver and be re-assembled into triglycerides in a process known as re-esterification.

[5] = tested on: fructose-fed and fat-fed/STZ rat models; test: NDGA versus metformin at equimolar doses in fructose-fed and fat-fed/STZ rat models; assay type: in vivo
Source text: NDGA has been studied by administering it orally to animals to determine its effectiveness for lowering glucose, free fatty acid (FFA) and triglyceride levels. […] See Example 2 below. […] There was no significant baseline difference between the NDGA and metformin groups.
In one such study, the effects of NDGA and metformin as a control drug for treatment of diabetes were studied in a non-diabetic model of hypertriglyceridemia (fructose-fed) and a non-genetic, (i.e., streptozotocin (STZ) treated) model of diabetes. […] See FIGS. 2 (glucose) and 3 (triglycerides).

Ob/ob mice = test: Glucose lowering in ob/ob mice; assay type: in vivo, mouse; settings: ob/ob mice with diabetes, given orally
Source text: as §2, §3

rodent models = test: Oral NDGA in a variety of rodent models (model not given); assay type: in vivo
Procedure: In these studies, a variety of rodent models were used to evaluate the glucose-lowering properties and its effects on lipids, such as lowering of triglycerides. NDGA was administered orally to animals over a wide range of doses (10 to 350) mg/kg.
NDGA was effective at lowering glucose when formulated in either aqueous or lipophilic vehicles to varying degrees of efficacy.

[6] = cited from earlier work
[7] = equimolar doses of NDGA or metformin

AUC0-last ([1]; 200 mg single oral dose): 66 +/− 26 ng-eq hr/ml | Cmax ([1]; 200 mg single oral dose): 32.6 +/− 15.3 ng-eq/ml | Tmax ([1]; 200 mg single oral dose): 1.3 ± 0.5 h | AUC0-last ([1]; 400 mg single oral dose): 385 +/− 90 ng-eq hr/ml | Cmax ([1]; 400 mg single oral dose): 69.1 +/− 51.6 ng-eq/ml | Tmax ([1]; 400 mg single oral dose): 1.8 ± 0.5 h | AUC0-last ([1]; 800 mg single oral dose): 591 +/− 252 ng-eq hr/ml | Cmax ([1]; 800 mg single oral dose): 120.3 +/− 66.3 ng-eq/ml | Tmax ([1]; 800 mg single oral dose): 1.8 ± 1.0 h | AUC0-last ([1]; 1600 mg single oral dose): 889 +/− 252 ng-eq hr/ml | Cmax ([1]; 1600 mg single oral dose): 189.3 +/− 65.7 ng-eq/ml | Tmax ([1]; 1600 mg single oral dose): 1.5 ± 0.6 h | AUC0-last ([1]; 2000 mg single oral dose): 1380 +/− 514 ng-eq hr/ml | Cmax ([1]; 2000 mg single oral dose): 187.6 +/− 106.0 ng-eq/ml | Tmax ([1]; 2000 mg single oral dose): 1.0 ± 0.0 h | Shape of concentration vs. time curves ([1]; all five doses, 200 to 2000 mg): unimodal (single peak) | Dose proportionality of peaks ([1]; increasing dose levels, 200 to 2000 mg): less than dose proportional | Elimination ([1]; oral capsule (immediate release), lower dose levels): rapid elimination
Structure (SMILES): CC(Cc1ccc(O)c(O)c1)C(C)Cc1ccc(O)c(O)c1 (stereo not drawn) [NDGA, nordihydroguaiaretic acid]
Safety of each tested dose ([1]; 200, 400, 800, 1600 and 2000 mg single oral dose, monitored 72 hours): considered safe | glucose lowering (Db/db mice): significantly lowers glucose | effect on muscle glycogen levels ([2]; compared to control): no effect | reduction of liver glycogen concentrations ([2]; versus vehicle): approximately 75% | Patients reporting adverse event: Abdominal pain ([3]; Body as a whole): 1 | Patients reporting adverse event: Asthenia ([3]; Body as a whole): 2 | Patients reporting adverse event: Headache ([3]; Body as a whole): 8 | Patients reporting adverse event: Neck rigidity ([3]; Body as a whole): 1 | Patients reporting adverse event: Pain ([3]; Body as a whole): 1 | Patients reporting adverse event: Syncope ([3]; Cardiovascular system): 1 | Patients reporting adverse event: Diarrhea ([3]; Digestive system): 2 | Patients reporting adverse event: Dyspepsia ([3]; Digestive system): 1 | Patients reporting adverse event: GI hemorrhage ([3]; Digestive system): 1 | Patients reporting adverse event: Increased appetite ([3]; Digestive system): 1 | Patients reporting adverse event: Vomiting ([3]; Digestive system): 1 | Patients reporting adverse event: Dizziness ([3]; Nervous system): 1 | Patients reporting adverse event: Hyperesthesia ([3]; Nervous system): 1 | Patients reporting adverse event: Increased coughing ([3]; Respiratory system): 1 | Patients reporting adverse event: Pharyngitis ([3]; Respiratory system): 1 | Patients reporting adverse event: Eye pain ([3]; Special senses): 1 | Patients reporting adverse event: Hematuria ([3]; Urogenital system): 1 | liver triglyceride secretion [4]: inhibit liver triglyceride secretion | change in insulin concentrations [5, 7]: without changing insulin concentration; also recorded: without any change in insulin concentrations | glucose lowering in comparison to the vehicle control [5, 7]: significantly lowered glucose | triglyceride lowering in comparison to the vehicle control [5, 7]: significantly lowered triglycerides | lowering of triglyceride concentrations in comparison to vehicle ([5]; equimolar dosing with metformin): 80% | glucose lowering (Ob/ob mice): significantly lowers glucose | triglyceride lowering (rodent models; CMC, PEG or Gelucire vehicles, doses as low as 10 mg/kg twice per day): lowered triglyceride concentrations | triglyceride lowering (rodent models; administered orally just once per day): lowered triglycerides | insulin concentrations (rodent models; highest dose studied, 350 mg/kg twice daily): did not result in increased insulin concentrations | glucose lowering (rodent models; once daily administration): generally ineffective at lowering glucose concentrations | solubility in aqueous media / water ([6]; aqueous media): poorly water-soluble; also recorded: insoluble | solubility in organic solvents ([6]; organic solvents such as methanol and ethanol): soluble
